Patent US4579951A (priority 1984, dated 1986)
Counter-ions that a name gives are not always drawn.

test system: cholera toxin-induced intestinal fluid secretion; assay: animal or person; assay type: in vivo, rat (female Charles River); conditions: Rattus norvegicus, sc, read-out: Inhibitory Doses (ID50's)

| Compound | ED50 [mg/kg] |
| --- | --- |
| Cc1c(O)cccc1NC1=NCCC1.Cl [Example 3, 3-[(3,4-dihydro-2H-pyrrol-5-yl)amino]-2-methylphenol hydrochloride] | 8.3 |
| Oc1cccc(NC2=NCCC2)c1 [Example 5, 3-[3,4-dihydro-2H-pyrrol-5-yl)amino]phenol hydrochloride] | 21.3 |
| Cc1cc(O)ccc1NC1=NCCC1 [Example 6, 4-[(3,4-dihydro-2H-pyrrol-5-yl)amino]-3-methylphenol 1/4 hydrate] | 6.5 |
| Cc1c(NC2=NCCC2)cccc1OC(=O)C(C)(C)C [Example 10, 3-[(3,4-dihydro-2H-pyrrol-5-yl)amino]-2-methylphenyl 2,2-dimethylpropanoatehydrochloride 1/4 hydrate] | 6.4 |
| Cc1cc(OC(=O)C(C)(C)C)ccc1NC1=NCCC1 [Example 11, 4-[(3,4-dihydro-2H-pyrrol-5-yl)amino]-3-methylphenyl 2,2-dimethylpropanoatehydrochloride] | 9 |
| Cc1c(NC2=NCCC2)cccc1OC(=O)c1ccccc1 [Example 12, 3-[(3,4-dihydro-2H-pyrrol-5-yl)amino]-2-methylphenyl benzoate hydrobromide 1/4 hydrate] | 5.7 |
| Cc1c(NC2=NCCC2)cccc1OC(=O)C1CCCCC1.Cl [Example 14, 3-[(3,4-dihydro-2H-pyrrol-5-yl)amino]-2-methylphenyl cyclohexanecarboxylate hydrochloride] | 8.1 |
| COc1ccccc1C(=O)Oc1cccc(NC2=NCCC2)c1C.Cl [Example 15, 3-[(3,4-dihydro-2H-pyrrol-5-yl)amino]-2-methylphenyl 2-methoxybenzoate hydrochloride] | 6.2 |
| CC(=O)Oc1cccc(NC2=NCCC2)c1C.Cl [Example 16, 3-[(3,4-dihydro-2H-pyrrol-5-yl)amino]-2-methylphenyl acetate hydrochloride] | 10.1 |
| COc1ccc(C(=O)Oc2cccc(NC3=NCCC3)c2C)cc1 [Example 17, 3-[(3,4-dihydro-2H-pyrrol-5-yl)amino]-2-methylphenyl 4-methoxybenzoate hydrochloride 5/8 hydrate] | 9.5 |
| Cc1ccccc1C(=O)Oc1cccc(NC2=NCCC2)c1C.Cl [Example 18, 3-[(3,4-dihydro-2H-pyrrol-5-yl)amino]-2-methylphenyl 2-methylbenzoate hydrochloride] | 40.5 |
| Cc1ccc(C(=O)Oc2cccc(NC3=NCCC3)c2C)cc1.Cl [Example 19, 3-[(3,4-dihydro-2H-pyrrol-5-yl)amino]-2-methylphenyl 4-methylbenzoate hydrochloride] | 5.9 |
| Cc1c(NC2=NCCC2)cccc1OC(=O)c1ccc(Cl)cc1 [Example 20, 3-[(3,4-dihydro-2H-pyrrol-5-yl)amino]-2-methylphenyl 4-chlorobenzoate hydrochloride 1/4 ethanol] | 10.6 |
| Cc1c(NC2=NCCC2)cccc1OC(=O)c1ccc(Cl)c(Cl)c1.Cl [Example 21, 3-[(3,4-dihydro-2H-pyrrol-5-yl)amino]-2-methylphenyl 3,4-dichlorobenzoate hydrochloride] | 5 |
| Cc1c(NC2=NCCC2)cccc1OC(=O)C1CC1.Cl [Example 22, 3-[(3,4-dihydro-2H-pyrrol-5-yl)amino]-2-methylphenyl cyclopropanecarboxylate hydrochloride] | 6.8 |
| Cc1c(NC2=NCCC2)cccc1OC(=O)C12CC3CC(CC(C3)C1)C2 [Example 23, 3-[(3,4-dihydro-2H-pyrrol-5-yl)amino]-2-methylphenyl adamantane-1-carboxylate hydrochloride 1/4 hydrate] | 9.1 |
| Cc1c(NC2=NCCC2)cccc1OC(=O)c1ccco1 [Example 24, 3-[(3,4-dihydro-2H-pyrrol-5-yl)amino]-2-methylphenyl furan-2-carboxylate hydrochloride 1/8 methanol] | 8.3 |
| COC(=O)c1ccc(NC2=NCCC2)c(C)c1 [reference compound] | 74 |

same assay, conditions: antisecretory antidiarrheal activity, qualitative statement

| Compound | activity in the cholera-induced intestinal fluid secretion assay (in words) |
| --- | --- |
| CN=C(N)NC(=O)Nc1c(C)cccc1C [Lidamidine, reference compound] | active |

same assay, conditions: subcutaneous route; class symbol; screening doses 10 and 20 mg/kg

| Compound | Inhibitory Doses (ID50's) |
| --- | --- |
| COc1ccc(NC2=NCCC2)c(C)c1 [reference compound] | I |
| COc1cccc(NC2=NCCC2)c1C [reference compound] | I |
